Measurements published in US20040235799A1, “Use of a compound with a negatively charged domain of radicals for the treatment of restenosis” (priority 2001, published 2004).

Tested on: Wistar rats
Assay: Neointima formation after balloon catheter vessel injury of the carotid artery in rats
Format: in vivo
Experimental: The effects on neointima formation was assessed after inducing vessel injury in rats with a balloon catheter. Neointima formation is an important part in the process of restenosis. Adult mate Wistar rats (250-260 g) were housed under standard conditions and were fed with commercial rat chow and water ad libitum. During the experiment D-myo-inositol-1,2,6-trisphosphate (IP3) was administered via subcutaneously operated osmotic minipumps with a dose level of 1 mg/kg/hr. A control group received saline solution by osmotic minipumps. The animals were anaesthetised with an intraperitoneal injection of ketamine, 100 mg/kg, (MTC Pharmaceuticals, Cambridge, Ontario, Canada) and xylazine, 10 mg/kg (Bayer lnc., Etobicoke, Ontario, Canada). Using a dissecting microscope, the left carotid artery was exposed on the ventral side of the neck via a midline incision. The bifurcation of the carotid artery was located and two ligatures were placed around the external carotid artery, which was then tied off with the distal ligature. After temporarily occluding the internal carotid artery with a vascular clamp, a small incision was made between the two ligatures placed around the external carotid artery to introduce the endothelial denudation device, an inflated […] Fogarty embolectomy catheter (Baxter Healthcare, Buckinghamshire, UK). […]

Compound | Reduction of neointima formation (vs control, procedure similar to Example 3) | Reduction of neointima formation (vs saline control, 1 mg/kg/hr via subcutaneous osmotic minipumps, 14 days post-operatively)
O=C(Nc1ccccc1)O[C@@H]1[C@@H](OC(=O)Nc2ccccc2)[C@@H](OP(=O)(O)O)[C@@H](OP(=O)(O)O)[C@H](OP(=O)(O)O)[C@H]1OC(=O)Nc1ccccc1 [PP 11-201, D-3,4,5-tri-O-(phenylcarbamoyl) myo-inositol-1,2,6-trisphosphate] | 62% | 
O=P(O)(O)O[C@@H]1[C@H](OP(=O)(O)O)[C@H](O)[C@@H](O)[C@H](O)[C@H]1OP(=O)(O)O [IP3, D-myo-inositol-1,2,6-trisphosphate] |  | 57%
